Experiments:
D(1B) dopamine receptor = D(1B) dopamine receptor (Homo sapiens, UniProt P21918); test: Affinity towards cloned Dopamine receptor D5
[1] = target: 5-hydroxytryptamine receptor 2A (Homo sapiens, UniProt P28223); test: In vitro binding affinity towards cloned human 5-HT2A receptor using [3H]5-carboximidotryptamine as radioligand
[2] = target: 5-hydroxytryptamine receptor 1D (Homo sapiens, UniProt P28221); test: In vitro binding affinity towards cloned human 5-HT1D receptor using [3H]5-carboximidotryptamine as radioligand
Sequence of 5-hydroxytryptamine receptor 1D (P28221 whole entry): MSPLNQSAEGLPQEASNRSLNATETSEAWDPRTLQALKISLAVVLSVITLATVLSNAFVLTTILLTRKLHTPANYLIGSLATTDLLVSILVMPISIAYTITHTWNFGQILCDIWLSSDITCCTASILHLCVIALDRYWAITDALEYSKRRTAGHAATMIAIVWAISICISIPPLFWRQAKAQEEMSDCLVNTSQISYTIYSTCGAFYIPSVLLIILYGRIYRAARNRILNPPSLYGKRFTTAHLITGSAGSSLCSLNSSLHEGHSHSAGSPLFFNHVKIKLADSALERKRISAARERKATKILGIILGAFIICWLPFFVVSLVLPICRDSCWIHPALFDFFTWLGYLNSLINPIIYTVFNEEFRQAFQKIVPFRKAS

[3] = target: T1, Muscarinic acetylcholine receptor M4 (Homo sapiens, UniProt P08173); test: Affinity towards cloned Muscarinic acetylcholine receptor M4
T1 sequence (P08173 whole entry): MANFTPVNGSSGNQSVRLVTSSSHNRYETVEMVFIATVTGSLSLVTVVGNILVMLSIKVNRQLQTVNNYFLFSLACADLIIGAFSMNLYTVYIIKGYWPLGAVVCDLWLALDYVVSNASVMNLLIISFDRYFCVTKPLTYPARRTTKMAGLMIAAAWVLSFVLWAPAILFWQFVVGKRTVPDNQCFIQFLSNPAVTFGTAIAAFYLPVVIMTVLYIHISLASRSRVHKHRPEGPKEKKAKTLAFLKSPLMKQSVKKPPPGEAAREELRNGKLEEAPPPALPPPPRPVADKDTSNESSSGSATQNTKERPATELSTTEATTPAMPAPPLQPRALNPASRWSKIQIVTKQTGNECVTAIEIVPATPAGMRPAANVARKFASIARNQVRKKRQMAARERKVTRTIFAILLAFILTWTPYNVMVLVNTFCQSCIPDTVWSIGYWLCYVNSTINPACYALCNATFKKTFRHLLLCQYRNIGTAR

[4] = target: T2, Muscarinic acetylcholine receptor M5 (Homo sapiens, UniProt P08912); test: Affinity towards cloned Muscarinic acetylcholine receptor M5
T2 sequence (P08912 whole entry): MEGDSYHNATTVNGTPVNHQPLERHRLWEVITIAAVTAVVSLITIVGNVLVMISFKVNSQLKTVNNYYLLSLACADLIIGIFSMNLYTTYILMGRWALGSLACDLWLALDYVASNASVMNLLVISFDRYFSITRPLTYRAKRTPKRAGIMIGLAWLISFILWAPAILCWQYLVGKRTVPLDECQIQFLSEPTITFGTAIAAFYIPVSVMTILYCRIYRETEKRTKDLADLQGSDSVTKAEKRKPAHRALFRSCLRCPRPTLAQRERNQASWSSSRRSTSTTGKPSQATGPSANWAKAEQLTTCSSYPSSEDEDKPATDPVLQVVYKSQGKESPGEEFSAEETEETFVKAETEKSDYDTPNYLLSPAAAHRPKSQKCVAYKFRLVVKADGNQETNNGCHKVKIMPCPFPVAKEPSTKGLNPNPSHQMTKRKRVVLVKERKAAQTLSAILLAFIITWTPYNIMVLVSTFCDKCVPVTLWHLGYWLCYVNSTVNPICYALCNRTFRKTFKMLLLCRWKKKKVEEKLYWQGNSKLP

[5] = target: T3, 5-hydroxytryptamine receptor 1A (Homo sapiens, UniProt P08908); test: Affinity towards cloned human 5-hydroxytryptamine 1A receptor
T3 sequence (P08908 whole entry): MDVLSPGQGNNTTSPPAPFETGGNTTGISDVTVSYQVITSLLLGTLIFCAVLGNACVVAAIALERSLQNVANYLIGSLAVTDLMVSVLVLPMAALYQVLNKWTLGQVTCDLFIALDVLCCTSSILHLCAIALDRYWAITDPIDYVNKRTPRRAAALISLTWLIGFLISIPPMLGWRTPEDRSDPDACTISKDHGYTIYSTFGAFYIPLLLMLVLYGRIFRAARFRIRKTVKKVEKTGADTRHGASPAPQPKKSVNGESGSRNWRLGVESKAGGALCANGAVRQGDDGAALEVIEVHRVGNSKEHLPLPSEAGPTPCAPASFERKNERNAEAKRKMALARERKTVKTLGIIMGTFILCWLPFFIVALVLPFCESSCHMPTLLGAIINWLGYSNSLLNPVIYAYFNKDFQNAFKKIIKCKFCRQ

Sequence of D(1B) dopamine receptor (P21918 whole entry): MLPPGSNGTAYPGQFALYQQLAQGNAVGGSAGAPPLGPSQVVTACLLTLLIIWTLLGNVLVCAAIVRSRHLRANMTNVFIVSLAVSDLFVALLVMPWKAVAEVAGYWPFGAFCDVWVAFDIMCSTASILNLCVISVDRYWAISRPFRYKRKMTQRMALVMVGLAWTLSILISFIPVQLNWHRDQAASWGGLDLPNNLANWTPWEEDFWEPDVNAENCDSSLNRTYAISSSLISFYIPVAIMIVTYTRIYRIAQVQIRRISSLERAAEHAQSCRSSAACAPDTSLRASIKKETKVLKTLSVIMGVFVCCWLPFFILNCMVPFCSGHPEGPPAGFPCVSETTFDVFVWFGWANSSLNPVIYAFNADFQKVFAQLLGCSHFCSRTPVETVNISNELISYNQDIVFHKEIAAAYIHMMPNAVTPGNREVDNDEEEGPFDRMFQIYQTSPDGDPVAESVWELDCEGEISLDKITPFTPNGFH
Sequence of 5-hydroxytryptamine receptor 2A (P28223 whole entry): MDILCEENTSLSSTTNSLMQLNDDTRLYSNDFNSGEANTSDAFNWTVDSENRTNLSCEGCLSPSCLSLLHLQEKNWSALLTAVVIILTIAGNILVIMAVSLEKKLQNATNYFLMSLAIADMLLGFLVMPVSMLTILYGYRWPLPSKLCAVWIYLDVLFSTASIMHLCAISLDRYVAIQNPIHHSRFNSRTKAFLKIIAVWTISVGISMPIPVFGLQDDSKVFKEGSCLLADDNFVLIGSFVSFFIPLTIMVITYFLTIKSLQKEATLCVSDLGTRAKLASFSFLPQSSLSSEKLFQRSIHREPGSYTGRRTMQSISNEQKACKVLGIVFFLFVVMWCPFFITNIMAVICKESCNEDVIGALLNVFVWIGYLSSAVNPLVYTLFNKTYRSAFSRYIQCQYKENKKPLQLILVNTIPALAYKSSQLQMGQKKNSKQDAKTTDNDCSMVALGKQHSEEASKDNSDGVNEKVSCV

| SMILES | Ki (D(1B) dopamine receptor) | Ki [1] | Ki [2] | Ki [3] | Ki [4] | Ki [5] |
| --- | --- | --- | --- | --- | --- | --- |
| COc1ccc(NC(=O)N2CCN(c3ccc(-c4ccccc4)cc3)CC2)cc1N1CCN(C)CC1 | > 10 µM | 0.171 µM | 0.209 µM | > 10 µM | > 10 µM |  |
| COc1ccc(NC(=O)N2CCN(c3ccc(F)cc3)CC2)cc1N1CCN(C)CC1 | > 10 µM | 4.45 µM | 0.168 µM | > 10 µM | > 10 µM |  |
| COc1ccc(NC(=O)N2CCN(c3ccc(SC)cc3)CC2)cc1N1CCN(C)CC1 | > 10 µM | 1.34 µM | 0.329 µM | > 10 µM | > 10 µM |  |
| COc1ccc(NC(=O)N2CCN(c3ccccc3Cl)CC2)cc1N1CCN(C)CC1 | > 10 µM | 5.99 µM | 0.0347 µM | > 10 µM | > 10 µM |  |
| COc1ccc(NC(=O)N2CCN(c3ccc(C(F)(F)F)cc3)CC2)cc1N1CCN(C)CC1 | > 10 µM | 0.614 µM | 0.345 µM | > 10 µM | > 10 µM |  |
| COc1ccccc1N1CCC(C(=O)Nc2ccc(OC)c(N3CCN(C)CC3)c2)CC1 | > 10 µM | > 10 µM | 0.0154 µM | > 10 µM | > 10 µM |  |
| COc1ccc(NC(=O)c2ccc(-c3ccc(-c4noc(C)n4)cc3C)cc2)cc1N1CCN(C)CC1 [GR-127935] | > 10 µM | 0.0427 µM |  | > 10 µM | > 10 µM | 0.07 µM |
| COc1ccc(NC(=O)N2CCN(c3ccccc3F)CC2)cc1N1CCN(C)CC1 | > 10 µM | > 10 µM | 0.103 µM | > 10 µM | > 10 µM |  |
| COc1ccc(NC(=O)N2CCN(c3ccc(Cl)cc3)CC2)cc1N1CCN(C)CC1 | > 10 µM | 1.01 µM | 0.00651 µM | > 10 µM | > 10 µM |  |

From ChEMBL document CHEMBL1143467, “Synthesis of potent and selective serotonin 5-HT1B receptor ligands” (Bioorg Med Chem Lett, 2005)
